Data: patent US11845760B2, “PRMT5 inhibitors” (AMGEN INC., priority 2020, dated 2023)
pIC50: −log10 of the molar value.

Columns and labels:
HCT116 WT cells = test: HCT116 WT cell line proliferation (CellTiter-Glo cell viability, 6 days); type: cell-based; conditions: Homo sapiens, HCT-116, 144 h, HCT116 WT (parent) cells, 6 days of treatment, CellTiter-Glo cell viability; read-out: HCT-116 WT IC50
How it was run: (§1)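 Isogenic HCT116 pair (parent and MTAP double-allele knockout) in RPMI 1640 + 10% FBS, exposed 6 days to compound: 8–9-point 1:3 dilutions from 1 or 10 μM top, or 22-point 1:2 dilutions from 10 or 50 μM top. CellTiter-Glo luminescence; IC50 from sigmoidal fit (Hill −1) or 4-parameter logistic.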

HCT116 MTAP null cells = test: HCT116 MTAP null cell line proliferation (CellTiter-Glo cell viability, 6 days); type: cell-based; conditions: HCT116-MTAP null, 144 h, HCT116 MTAP null cells, 6 days of treatment, CellTiter-Glo cell viability; read-out: HCT-116 MTAP null IC50
How it was run: as §1

| Compound | pIC50 (HCT116 WT cells) | pIC50 (HCT116 MTAP null cells) |
| --- | --- | --- |
| C[C@@H]1COC[C@H](c2ccc(C(F)(F)F)cc2)N1C(=O)c1cc2c(cc1F)nc(N)c1c2cnn1C [Example 531, (4-amino-7-fluoro-3-methyl-3H-pyrazolo[3,4-c]quinolin-8-yl)((3R,5S)-3-methyl-5-(4-(trifluoromethyl)phenyl)-4-morpholinyl)methanone] | 6.67 | 7.89 |
| C[C@@H]1COC[C@H](c2ccc(OC(F)(F)F)cc2)N1C(=O)c1cc2c(cc1F)nc(N)c1c2cnn1C [Example 532, (4-amino-7-fluoro-3-methyl-3H-pyrazolo[3,4-c]quinolin-8-yl)((3R,5S)-3-methyl-5-(4-(trifluoromethoxy)phenyl)-4-morpholinyl)methanone] | 6.40 | 7.72 |
| C[C@@H]1COC[C@H](c2ccc(C(F)(F)F)cc2)N1C(=O)c1ccc2nc(N)c3c(cnn3C)c2c1 [Example 533, (4-amino-3-methyl-3H-pyrazolo[3,4-c]quinolin-8-yl)((3R,5S)-3-methyl-5-(4-(trifluoromethyl)phenyl)-4-morpholinyl)methanone] | 5.61 | 7.35 |
| C[C@@H]1COC[C@H](c2ccc(OC(F)(F)F)cc2)N1C(=O)c1ccc2nc(N)c3c(cnn3C)c2c1 [Example 534, (4-amino-3-methyl-3H-pyrazolo[3,4-c]quinolin-8-yl)((3R,5S)-3-methyl-5-(4-(trifluoromethoxy)phenyl)-4-morpholinyl)methanone] | 5.58 | 7.36 |
| CCOc1ccc([C@H]2COC[C@@H](C)N2C(=O)c2cc3c4c(c(N)nc3cn2)COC4)nn1 [Example 535, (4-amino-1,3-dihydrofuro[3,4-c][1,7]naphthyridin-8-yl)((3S,5R)-3-(6-ethoxy-3-pyridazinyl)-5-methyl-4-morpholinyl)methanone] | 5.50 | 7.19 |
| C[C@@H]1COC[C@H](c2ccc(OC(F)(F)F)cc2)N1C(=O)c1ccc2nc(N)c3c(c2c1)CO[C@@H]3C [Example 536, ((3R)-4-amino-3-methyl-1,3-dihydrofuro[3,4-c]quinolin-8-yl)((3R,5S)-3-methyl-5-(4-(trifluoromethoxy)phenyl)-4-morpholinyl)methanone] | 6.19 | 7.72 |
| CCOc1ccc([C@H]2COC[C@@H](C)N2C(=O)c2ccc3nc(N)c4c(c3c2)CO[C@@H]4C)nn1 [Example 537, ((3R)-4-amino-3-methyl-1,3-dihydrofuro[3,4-c]quinolin-8-yl)((3S,5R)-3-(6-ethoxy-3-pyridazinyl)-5-methyl-4-morpholinyl)methanone] | 5.60 | 7.26 |
| COc1ccc([C@H]2COC[C@@H](C)N2C(=O)c2ccc3nc(N)c4c(cnn4C)c3c2)nn1 [Example 538, (4-amino-3-methyl-3H-pyrazolo[3,4-c]quinolin-8-yl)((3S,5R)-3-(6-methoxy-3-pyridazinyl)-5-methyl-4-morpholinyl)methanone] | 4.88 | 6.55 |
| COc1ccc([C@H]2COC[C@@H](C)N2C(=O)c2cc3c(cc2F)nc(N)c2c3cnn2C)nn1 [Example 539, (4-amino-7-fluoro-3-methyl-3H-pyrazolo[3,4-c]quinolin-8-yl)((3S,5R)-3-(6-methoxy-3-pyridazinyl)-5-methyl-4-morpholinyl)methanone] | 5.90 | 7.57 |
| COc1ccc([C@H]2COC[C@@H](C)N2C(=O)c2cc3c4c(c(N)nc3cc2F)COC4)nn1 [Example 540, (4-amino-7-fluoro-1,3-dihydrofuro[3,4-c]quinolin-8-yl)((3S,5R)-3-(6-methoxy-3-pyridazinyl)-5-methyl-4-morpholinyl)methanone] | 6.24 | 7.72 |
| Cn1ncc2c3cc(C(=O)N4CCOC[C@@H]4c4ccc(S(F)(F)(F)(F)F)cc4)c(F)cc3nc(N)c21 [Example 544, (4-amino-7-fluoro-3-methyl-3H-pyrazolo[3,4-c]quinolin-8-yl)((3S)-3-(4-(pentafluoro-lambda~6~- sulfanyl)phenyl)-4-morpholinyl)methanone] | 6.00 | 7.62 |
| Cn1ncc2c(N)nc3cc(F)c(C(=O)N4CCOC[C@@H]4c4ccc(F)cc4)cc3c21 [Example 545, (4-amino-7-fluoro-1-methyl-1H-pyrazolo[4,3-c]quinolin-8-yl)((3S)-3-(4-fluorophenyl)-4-morpholinyl)methanone] | 5.84 | 7.51 |
| Cn1ncc2c(N)nc3cc(Cl)c(C(=O)N4CCOC[C@@H]4c4ccc(C(F)(F)F)cc4)cc3c21 [Example 546, (4-amino-7-chloro-1-methyl-1H-pyrazolo[4,3-c]quinolin-8-yl)((3S)-3-(4-(trifluorometliyl)phenyl)-4-morpholinyl)methanone] | 6.70 | 7.89 |
| Cn1ncc2c(N)nc3cc(C(F)(F)F)c(C(=O)N4CC[C@H](c5ccc(C(F)(F)F)cc5)C4)cc3c21 [Example 547, (4-amino-1-methyl-7-(trifluoromethyl)-1H-pyrazolo[4,3-c]quinolin-8-yl)((3R)-3-(4-(trifluoromethyl)phenyl)-1-pyrrolidinyl)methanone] | 5.41 | 6.40 |
| Cn1ncc2c(N)nc3cc(C(F)(F)F)c(C(=O)N4CCOC[C@@H]4c4ccc(C(F)(F)F)cc4)cc3c21 [Example 548, (4-amino-1-methyl-7-(trifluoromethyl)-1H-pyrazolo[4,3-c]quinolin-8-yl)((3S)-3-(4-(trifluoromethyl)phenyl)-4-morpholinyl)methanone] | 5.09 | 6.57 |
| Nc1nc2cnc(C(=O)N3CCOC[C@@H]3c3ccc(C(F)(F)F)nn3)cc2c2c1COC2 [Example 549, (4-amino-1,3-dihydrofuro[3,4-c][1,7]naphthyridin-8-yl)((3S)-3-(6-(trifluoromethyl)-3-pyridazinyl)-4-morpholinyl)methanone] | 4.67 | 6.25 |
| C[C@@H]1COC[C@H](c2ccc(OC3CC3)nn2)N1C(=O)c1cc2c3c(c(N)nc2cn1)COC3 [Example 550, (4-amino-1,3-dihydrofuro[3,4-c][1,7]naphthyridin-8-yl)((3S,5R)-3-(6-(cyclopropyloxy)-3-pyridazinyl)-5-methyl-4-morpholinyl)methanone] | 5.50 | 7.14 |
| COc1ccc([C@H]2COC[C@@H](C)N2C(=O)c2cc3c(cc2F)nc(N)c2cnn(C)c23)nn1 [Example 551, (4-amino-7-fluoro-1-methyl-1H-pyrazolo[4,3-c]quinolin-8-yl)((3S,5R)-3-(6-methoxy-3-pyridazinyl)-5-methyl-4-morpholinyl)methanone] | 6.82 | 8.22 |
| COc1ccc([C@H]2COC[C@@H](C)N2C(=O)c2cc3c4c(c(N)nc3cc2F)[C@@H](C)OC4)nn1 [Example 552, ((3R)-4-amino-7-fluoro-3-methyl-1,3-dihydrofuro[3,4-c]quinolin-8-yl)((3S,5R)-3-(6-methoxy-3-pyridazinyl)-5-methyl-4-morpholinyl)methanone] | 6.43 | 7.89 |
| Cn1ncc2c(N)nc3ccc(C(=O)N4CCOC[C@@H]4c4ccc(OC(F)F)nn4)cc3c21 [Example 553, (4-amino-1-methyl-1H-pyrazolo[4,3-c]quinolin-8-yl)((3S)-3-(6-(difluoromethoxy)-3-pyridazinyl)-4-morpholinyl)methanone] | 4.49 | 6.29 |
| C[C@@H]1COC[C@H](c2ccc(OC(F)F)nn2)N1C(=O)c1cc2c3c(c(N)nc2cn1)COC3 [Example 554, (4-amino-1,3-dihydrofuro[3,4-c][1,7]naphthyridin-8-yl)((3S,5R)-3-(6-(difluoromethoxy)-3-pyridazinyl)-5-methyl-4-morpholinyl)methanone] | 5.96 | 7.55 |
| C[C@@H]1COC[C@H](c2ccc(C(F)(F)F)nn2)N1C(=O)c1cc2c3c(c(N)nc2cn1)COC3 [Example 555, (4-amino-1,3-dihydrofuro[3,4-c][1,7]naphthyridin-8-yl)((3R,5S)-3-methyl-5-(6-(trifluoromethyl)-3-pyridazinyl)-4-morpholinyl)methanone] | 5.91 | 7.39 |
| Cn1ncc2c(N)nc3cc(F)c(C(=O)N4CCOC[C@@H]4c4ccc(OC(F)F)nn4)cc3c21 [Example 556, (4-amino-7-fluoro-1-methyl-1H-pyrazolo[4,3-c]quinolin-8-yl)((3S)-3-(6-(difluoromethoxy)-3-pyridazinyl)-4-morpholinyl)methanone] | 5.45 | 7.41 |
| Cn1ncc2c3cc(C(=O)N4CCOC[C@@H]4c4ccc(OC(F)F)nn4)c(F)cc3nc(N)c21 [Example 557, (4-amino-7-fluoro-3-methyl-3H-pyrazolo[3,4-c]quinolin-8-yl)((3S)-3-(6-(difluoromethoxy)-3-pyridazinyl)-4-morpholinyl)methanone] | 4.43 | 6.16 |
| Cn1ncc2c(N)nc3cc(F)c(C(=O)N4CCOC[C@@H]4c4ccc(C(F)(F)F)cn4)cc3c21 [Example 558, (4-amino-7-fluoro-1-methyl-1H-pyrazolo[4,3-c]quinolin-8-yl)((3S)-3-(5-(trifluoromethyl)-2-pyridinyl)-4-morpholinyl)methanone] | 6.20 | 7.77 |
| Cn1ncc2c(N)nc3cc(F)c(C(=O)N4CCOC[C@H]4c4ccc(C(F)(F)F)cn4)cc3c21 [Example 559, (4-amino-7-fluoro-1-methyl-1H-pyrazolo[4,3-c]quinolin-8-yl)((3R)-3-(5-(trifluoromethyl)-2-pyridinyl)-4-morpholinyl)methanone] | 4.92 | 6.24 |
| Cn1ncc2c(N)nc3cc(F)c(C(=O)N4CCOC[C@@H]4c4ccc(C(F)(F)F)nn4)cc3c21 [Example 560, (4-amino-7-fluoro-1-methyl-1H-pyrazolo[4,3-c]quinolin-8-yl)((3S)-3-(6-(trifluoromethyl)-3-pyridazinyl)-4-morpholinyl)methanone] | 5.54 | 7.38 |
